Source: patent publication USRE30511E, “Imidazo[1,5-d]-as-triazine-4(3H)-ones and thiones” (American Cyanamid Company, priority 1979, dated 1981)

Assays:
[1] = tested on: Mouse Skin Phosphodiesterase; assay: Mouse skin phosphodiesterase (PDE) inhibition test; assay type: biochemical, Hairless mice; design: key: Active: A compound is considered active if it inhibits more than theophylline, that is, to 50% of control at 1 mM concentration of compound, or to 80% of control of 0.05 mM concentration of compound; details: 10 ug./ml. final concentration; 30° C. for 15 minutes
[2] = tested on: Monkey Lung Cyclic AMP Phosphodiesterase; assay: Monkey lung phosphodiesterase inhibition test; assay type: biochemical, African green monkeys; details: usually 1 mM or 0.1 mM; pH 7.4, 25° C. for 20 minutes
Description: Lung parenchyma of African green monkeys is homogenized in a Waring blender and centrifuged at 40,000×gravity for 20 minutes. The supernatant is brought to 70% saturation of ammonium sulfate, centrifuged and the pellet redissolved and dialysed, before aliquoting and storage at --20° C.
Phosphodiesterase is assayed by the method of Thompson and Appleman, ibid. An assay tube contains a 0.4 ml. solution of the following: 45 mM tris-HCl buffer, pH 7.4, […], 0.1 mM dithioerythritol, 10^-6 M cyclic AMP, 0.1 uCi [^3 H]-cyclic AMP, and test compound at the desired concentration (usually 1 mM or 0.1 mM). Compounds not readily soluble in water are dissolved at 40 times the desired concentration in methanol, and diluted 20 times with water. If the compound is not dissolved at this time, it is suspended by sonication before being diluted 1:2 into the assay tube. In this case the activity of the enzyme in the presence of the compound is compared to a solvent control (2.5% methanol), although the solvent alone has negligible effect. The reaction is initiated by addition of enzyme and proceeds at 25° C. for 20 minutes. It is terminated by incubation at 100° C. for 2 minutes. The tubes are cooled to 25° C., 0.8 ug of 5'-nucleotidase (Crotolu adamantus toxin) is added to each and the tubes incubated at 25° C. for 30 minutes. A 1 milliliter suspension of Bio-Rad Labs. AGIX8 (about 0.5 ml. of settled resin) is added, the tubes centrifuged at 900×gravity for 10 minutes and an aliquot of supernatant removed for scintillation counting. The inhibition by the test compound is calculated as: [formula] where `compound` is the cpm in the presence of compound, `control` is the cpm in the absence of compound, and `blank` is the cpm in the absence of enzyme. […] For this reason, control tubes which contained [^3 H]-AMP instead of [^3 H]-cyclic AMP are run in parallel. A correction of the apparent phosphodiesterase activity is made for the rare compound which inhibited the hydrolysis of AMP.

[3] = Dispersion of aerosol suspension on warming after storage; assay type: physicochemical; details: aerosol suspension in dichlorodifluoromethane with sorbitan trioleate, sonified
Description: The active ingredient and sorbitan trioleate are placed in a beaker and the dichlorodifluoromethane is added at -40° C. whereupon a suspension is formed. The mixture is sonified, that is, treated with a Sonifier, manufactured by the Branson Sonic Power Co. of Danbury, Conn., as model LS-75 at a current input of 9 amperes for 2 minutes. Additional cold dichlorodifluoromethane is added as necessary to keep the volume at 100 ml. The mixture is uniformly dispersed, and has increased stability resulting from the sonification. Each of six 19 ml. stainless steel containers are filled with 15 ml. of the cold mixture, then valves are inserted and sealed in place.

| Mouse Skin Phosphodiesterase (A) [1] | Monkey lung phosphodiesterase inhibition (B) [2] | dispersion of the aerosol suspension [3] | Compound |
| --- | --- | --- | --- |
| Active | Active | – | Cc1nc(-c2ccccc2)n2c(=O)[nH]ncc12 [8-Methyl-6-phenyl-imidazo[1,5-d]-as-triazin-4(3H)-one] |
| Active | Active | – | O=c1[nH]ncc2c(Cl)nc(-c3ccccc3)n12 [8-Chloro-6-phenyl-imidazo[1,5-d]-as-triazin-4(3H)-one] |
| Active | Active | – | Cc1nc(C(C)(C)C)n2c(=O)[nH]ncc12 [6-tert-Butyl-8-methyl-imidazo[1,5-d]-as-triazin-4(3H)-one] |
| Active | – | – | O=c1[nH]ncc2cnc(-c3ccccc3)n12 [6-Phenyl-imidazo[1,5-d]-as-triazin-4(3H)-one] |
| Active | – | – | CCCc1ncc2cn[nH]c(=O)n12 [6-n-Propyl-imidazo[1,5-d]-as-triazin-4(3H)-one] |
| Active | – | – | Cc1ncn2c(=O)[nH]ncc12 [8-Methyl-imidazo[1,5-d]-as-triazin-4(3H)-one] |
| Active | Active | – | CCCc1ncc2cn[nH]c(=S)n12 [6-n-Propyl-imidazol[1,5-d]-as-triazine-4(3H)-thione] |
| Active | Active | – | CCCc1nc(C)c2cn[nH]c(=S)n12 [8-Methyl-6-n-propyl-imidazolo[1,5-d]-as-triazine-4(3H)-thione] |
| Active | – | – | Cc1nc(Cc2ccccc2)n2c(=O)[nH]ncc12 [6-Benzyl-8-methyl-imidazo[1,5-d]-as-triazin-4(3H)-one] |
| Active | – | – | CCCOc1ccccc1-c1ncc2cn[nH]c(=O)n12 [6-o-Propoxyphenyl-imidazo[1,5-d]-as-triazine-4(3H)-one] |
| – | – | remains dispersed | CC(C)c1nc(Cl)c2cn[nH]c(=S)n12 [8-chloro-6-isopropyl-imidazo[1,5-d]-as-triazine-4(3H)-thione] |
| Active | – | – | Cc1nc(-c2ccccc2)n2c(=S)[nH]ncc12 [8-Methyl-6-phenyl-imidazo[1,5-d]-as-triazine-4-(3H)-thione] |
| Active | – | – | O=c1[nH]ncc2cnc(Cc3ccccc3)n12 [6-Benzyl-imidazo[1,5-d]-as-triazin-4(3H)-one] |
| Active | – | – | Cc1ncn2c(=S)[nH]ncc12 [8-Methyl-imidazo[1,5-d]-as-triazine-4-(3H)-thione] |
| Active | – | – | Cc1nc(C)n2c(=S)[nH]ncc12 [6,8-Dimethyl-imidazo[1,5-d]-as-triazine-4-(3H)-thione] |
| Active | Active | – | O=c1[nH]ncc2c(Br)nc(-c3ccccc3)n12 [8-Bromo-6-phenyl-imidazo[1,5-d]-as-triazin-4(3H)-one] |
| Active | Active | – | Cc1nc(Cc2ccccc2)n2c(=S)[nH]ncc12 [6-Benzyl-8-methyl-imidazo[1,5-d]-as-triazine-4(3H)-thione] |
| Active | Active | – | Cc1nc(C)n2c(=O)[nH]ncc12 [6,8-Dimethyl-imidazo[1,5-d]-as-triazin-4(3H)-one] |
| Active | – | – | CC(C)(C)c1ncc2cn[nH]c(=O)n12 [6-tert-Butyl-imidazo[1,5-d]-as-triazin-4(3H)-one] |
